From ChEMBL document CHEMBL1157504, “Discovery and SAR of 2-(1-propylpiperidin-4-yl)-1H-benzimidazole-4-carboxamide: A potent inhibitor of poly(ADP-ribose) polymerase (PARP) for the treatment of cancer” (Bioorg Med Chem, 2008)
pEC50, pKi: −log10 of the molar value. Converted amounts (≈) assume the structure as drawn.

Legend:
[1] = target: T1, Poly [ADP-ribose] polymerase 1 (Homo sapiens, UniProt P09874)
Description: Inhibition of PARP1 in human C41 cells

[2] = target: T1, Poly [ADP-ribose] polymerase 1; remark: listed apart in the source
[3] = Oral bioavailability in CD1 mouse at 10 mg/kg; type: ADME, organism-based; settings: in vivo
[4] = Half life in CD1 mouse at 3 mg/kg, iv; type: ADME, organism-based; parameters: dose 3 mg/kg, route intravenous; settings: in vivo
[5] = AUC in CD1 mouse at 10 mg/kg, po; type: ADME, organism-based; parameters: dose 10 mg/kg, route oral; settings: plasma
[6] = Cmax in CD1 mouse at 10 mg/kg, po; type: ADME, organism-based; parameters: dose 10 mg/kg, route oral; settings: in vivo
[7] = target: Poly [ADP-ribose] polymerase 2 (Homo sapiens, UniProt Q9UGN5); assay: Inhibition of PARP2
Poly [ADP-ribose] polymerase 2, sequence (Q9UGN5 whole entry): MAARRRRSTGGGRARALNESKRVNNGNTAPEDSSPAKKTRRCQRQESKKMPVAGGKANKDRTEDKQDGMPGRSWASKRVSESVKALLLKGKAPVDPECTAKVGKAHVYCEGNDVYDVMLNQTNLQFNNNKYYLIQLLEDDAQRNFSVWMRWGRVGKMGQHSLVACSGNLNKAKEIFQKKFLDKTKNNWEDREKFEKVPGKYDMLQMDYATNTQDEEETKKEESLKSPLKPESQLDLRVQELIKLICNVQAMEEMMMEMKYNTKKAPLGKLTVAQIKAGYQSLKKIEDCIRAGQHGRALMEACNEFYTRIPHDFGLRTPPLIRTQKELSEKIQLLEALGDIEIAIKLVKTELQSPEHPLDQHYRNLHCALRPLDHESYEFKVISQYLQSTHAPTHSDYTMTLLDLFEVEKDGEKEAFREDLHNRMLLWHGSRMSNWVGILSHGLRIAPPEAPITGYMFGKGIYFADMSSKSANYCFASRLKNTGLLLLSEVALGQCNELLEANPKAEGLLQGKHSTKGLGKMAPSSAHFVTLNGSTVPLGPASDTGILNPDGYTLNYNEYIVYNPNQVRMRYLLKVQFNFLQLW

[8] = Volume of distribution at steady state in CD1 mouse at 10 mg/kg; type: ADME, organism-based; parameters: dose 10 mg/kg; settings: in vivo, read-out: Vdss
[9] = Clearance in CD1 mouse at 10 mg/kg; type: ADME, organism-based; parameters: dose 10 mg/kg; settings: in vivo
[10] = Oral bioavailability in rat at 4.1 mg/kg; type: ADME, organism-based; settings: in vivo
[11] = Half life in rat at 4.1 mg/kg, iv; type: ADME, organism-based; parameters: dose 4.1 mg/kg, route intravenous; settings: in vivo
[12] = AUC in rat at 4.1 mg/kg, po; type: ADME, organism-based; parameters: dose 4.1 mg/kg, route oral; settings: plasma
[13] = Cmax in rat at 4.1 mg/kg, po; type: ADME, organism-based; parameters: dose 4.1 mg/kg, route oral; settings: in vivo
[14] = Volume of distribution at steady state in rat at 4.1 mg/kg; type: ADME, organism-based; parameters: dose 4.1 mg/kg; settings: in vivo, read-out: Vdss
[15] = Clearance in rat at 4.1 mg/kg; type: ADME, organism-based; parameters: dose 4.1 mg/kg; settings: in vivo
[16] = Oral bioavailability in dog at 4.1 mg/kg; type: ADME, organism-based, Canis lupus familiaris; settings: in vivo
[17] = Half life in dog at 4.1 mg/kg, iv; type: ADME, organism-based, Canis lupus familiaris; parameters: dose 4.1 mg/kg, route intravenous; settings: in vivo
[18] = AUC in dog at 4.1 mg/kg, po; type: ADME, organism-based, Canis lupus familiaris; parameters: dose 4.1 mg/kg, route oral; settings: plasma
[19] = Cmax in dog at 4.1 mg/kg, po; type: ADME, organism-based, Canis lupus familiaris; parameters: dose 4.1 mg/kg, route oral; settings: in vivo
[20] = Volume of distribution at steady state in dog at 4.1 mg/kg; type: ADME, organism-based, Canis lupus familiaris; parameters: dose 4.1 mg/kg; settings: in vivo, read-out: Vdss
[21] = Clearance in dog at 4.1 mg/kg; type: ADME, organism-based, Canis lupus familiaris; parameters: dose 4.1 mg/kg; settings: in vivo
[22] = Oral bioavailability in monkey at 4.1 mg/kg; type: ADME, organism-based, Macaca mulatta; settings: rhesus monkey, in vivo
[23] = Half life in monkey at 4.1 mg/kg, iv; type: ADME, organism-based, Macaca mulatta; parameters: dose 4.1 mg/kg, route intravenous; settings: rhesus monkey, in vivo
[24] = AUC in monkey at 4.1 mg/kg, po; type: ADME, organism-based, Macaca mulatta; parameters: dose 4.1 mg/kg, route oral; settings: rhesus monkey, plasma
[25] = Cmax in monkey at 4.1 mg/kg, po; type: ADME, organism-based, Macaca mulatta; parameters: dose 4.1 mg/kg, route oral; settings: rhesus monkey, in vivo
[26] = Volume of distribution at steady state in monkey at 4.1 mg/kg; type: ADME, organism-based, Macaca mulatta; parameters: dose 4.1 mg/kg; settings: rhesus monkey, in vivo, read-out: Vdss
[27] = Clearance in monkey at 4.1 mg/kg; type: ADME, organism-based, Macaca mulatta; parameters: dose 4.1 mg/kg; settings: rhesus monkey, in vivo
[28] = Solubility in water at pH 7.8; type: physicochemical
[29] = Protein binding in human plasma; type: ADME, cell-free; settings: read-out: PPB (converted)
[30] = Half life in CD1 mouse at 3 mg/kg, iv; settings: in vivo

T1 sequence (P09874 whole entry): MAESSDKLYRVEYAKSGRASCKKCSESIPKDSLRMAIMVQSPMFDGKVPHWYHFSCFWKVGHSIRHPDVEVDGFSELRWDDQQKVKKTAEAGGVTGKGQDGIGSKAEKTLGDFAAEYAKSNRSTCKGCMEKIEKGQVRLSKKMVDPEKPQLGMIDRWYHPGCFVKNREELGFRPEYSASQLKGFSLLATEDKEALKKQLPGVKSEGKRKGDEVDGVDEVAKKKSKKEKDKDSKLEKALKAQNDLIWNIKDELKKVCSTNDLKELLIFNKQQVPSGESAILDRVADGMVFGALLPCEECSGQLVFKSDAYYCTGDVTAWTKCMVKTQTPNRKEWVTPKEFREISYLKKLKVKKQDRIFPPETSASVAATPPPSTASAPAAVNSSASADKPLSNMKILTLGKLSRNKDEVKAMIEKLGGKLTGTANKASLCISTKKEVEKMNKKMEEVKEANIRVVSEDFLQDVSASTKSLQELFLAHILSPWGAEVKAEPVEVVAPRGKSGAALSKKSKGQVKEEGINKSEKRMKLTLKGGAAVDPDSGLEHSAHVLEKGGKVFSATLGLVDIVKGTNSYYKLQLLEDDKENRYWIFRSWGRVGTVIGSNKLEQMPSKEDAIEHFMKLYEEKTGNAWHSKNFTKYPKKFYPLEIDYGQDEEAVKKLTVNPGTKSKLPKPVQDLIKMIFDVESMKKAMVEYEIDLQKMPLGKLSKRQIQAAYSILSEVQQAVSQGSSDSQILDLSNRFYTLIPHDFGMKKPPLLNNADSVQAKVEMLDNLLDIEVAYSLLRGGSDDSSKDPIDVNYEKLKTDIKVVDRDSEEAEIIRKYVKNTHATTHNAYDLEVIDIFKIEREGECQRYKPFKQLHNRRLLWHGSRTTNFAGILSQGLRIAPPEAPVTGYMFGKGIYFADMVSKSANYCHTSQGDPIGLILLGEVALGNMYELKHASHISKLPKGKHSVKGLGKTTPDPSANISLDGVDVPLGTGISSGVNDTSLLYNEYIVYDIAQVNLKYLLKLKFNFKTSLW

NC(=O)c1cccc2[nH]c(C3CCN3)nc12 (centres undefined)
pEC50 [1]: 6.70

NC(=O)c1cccc2[nH]c(C3CCN(C4CCCC4)CC3)nc12
pKi [2]: 8.22
pEC50 [1]: 8.30

CN1CCC(c2nc3cccc(C(N)=O)c3[nH]2)CC1
pKi [2]: 7.72
pEC50 [1]: 8.05

CN1CCCC(c2nc3c(C(N)=O)cccc3[nH]2)C1 (centres undefined)
pKi [2]: 7.52
pEC50 [1]: 7.82

CCCN1CCC(c2nc3c(C(N)=O)cccc3n2C)CC1
pKi [2]: 7.47
pEC50 [1]: 7.68

CC(C)N1CCCCC1c1nc2c(C(N)=O)cccc2[nH]1 (centres undefined)
pKi [2]: 7.35
pEC50 [1]: 7.89

CN1CCCCC1c1nc2c(C(N)=O)cccc2[nH]1 (centres undefined)
pKi [2]: 7.54
pEC50 [1]: 7.52

NC(=O)c1cccc2[nH]c(C3CNCCN3)nc12 (centres undefined)
pKi [2]: 7.59
pEC50 [1]: < 6.00

COC1CCC(c2nc3cccc(C(N)=O)c3[nH]2)CC1 (centres undefined)
pKi [2]: 7.36
pEC50 [1]: 6.68

CN(C)S(=O)(=O)N1CCC(c2nc3c(C(N)=O)cccc3[nH]2)CC1
pKi [2]: 7.55
pEC50 [1]: 6.77

CC(C)N1CCC(c2nc3c(C(N)=O)cc(Cl)cc3[nH]2)CC1
bioavailability [3]: 100%
half-life [4]: 1.4 h
AUC [5]: 1700 ng·h/mL
Cmax [6]: 300 ng/mL
pKi [2]: 7.74
pEC50 [1]: 8.05

CCCN1CCC(c2nc3cccc(C(N)=O)c3[nH]2)CC1
pKi [7]: 8.30
bioavailability [3]: 63%
half-life [4]: 1.2 h
AUC [5]: 1200 ng·h/mL
Cmax [6]: 400 ng/mL
Vd [8]: 9.1 L/kg
clearance [9]: 88.3 mL/min/kg
bioavailability [10]: 48%
half-life [11]: 2.6 h
AUC [12]: 700 ng·h/mL
Cmax [13]: 800 ng/mL
Vd [14]: 10.7 L/kg
clearance [15]: 48.3 mL/min/kg
bioavailability [16]: 82%
half-life [17]: 2.7 h
AUC [18]: 3700 ng·h/mL
Cmax [19]: 1000 ng/mL
Vd [20]: 3.6 L/kg
clearance [21]: 15 mL/min/kg
bioavailability [22]: 32%
half-life [23]: 1.7 h
AUC [24]: 700 ng·h/mL
Cmax [25]: 200 ng/mL
Vd [26]: 4.9 L/kg
clearance [27]: 33.3 mL/min/kg
solubility [28]: 6000 µg/mL (≈ 21 mM)
fraction unbound [29]: 0.43
pKi [2]: 8.10
pEC50 [1]: 8.52
half-life [30]: 1.2 h

NC(=O)c1cccc2[nH]c(C3CCN(CCc4ccccc4)C3)nc12 (centres undefined)
bioavailability [3]: 89%
half-life [4]: 0.8 h
AUC [5]: 1300 ng·h/mL
Cmax [6]: 700 ng/mL
pEC50 [1]: 8.22

NC(=O)c1cccc2[nH]c(C3CCN(S(=O)(=O)c4ccccc4)CC3)nc12
pKi [7]: 7.62
pKi [2]: 7.57
pEC50 [1]: < 6.00

N#Cc1ccc(N2CCC(c3nc4c(C(N)=O)cccc4[nH]3)CC2)cc1
pKi [2]: 8.52
pEC50 [1]: 7.68

CCN(CC)CCN1CCC(c2nc3cccc(C(N)=O)c3[nH]2)CC1
pKi [2]: 7.51
pEC50 [1]: 7.03

CC(C)N1CCC1c1nc2c(C(N)=O)cccc2[nH]1 (centres undefined)
pKi [2]: 6.96

CCCN1CC(c2nc3c(C(N)=O)cccc3[nH]2)C1
pKi [2]: 7.77
pEC50 [1]: 7.80

NC(=O)c1cccc2[nH]c(C3CCCNC3)nc12 (centres undefined)
bioavailability [3]: 26%
half-life [4]: 2 h
AUC [5]: 1000 ng·h/mL
Cmax [6]: 200 ng/mL
pKi [2]: 7.96
pEC50 [1]: 7.62

CCCN1CCC(c2nc3c(C(N)=O)cccc3[nH]2)C1 (centres undefined)
pKi [2]: 8.10
pEC50 [1]: 8.52

CN1CCC[C@@H]1c1nc2c(C(N)=O)cccc2[nH]1
bioavailability [3]: 25%
half-life [4]: 0.1 h
AUC [5]: 40 ng·h/mL
Cmax [6]: 30 ng/mL

CC(C)N1CCCC(c2nc3cccc(C(N)=O)c3[nH]2)CC1 (centres undefined)
pKi [2]: 8.30
pEC50 [1]: 8.22

NC(=O)c1cccc2[nH]c([C@H]3CCCN3)nc12
bioavailability [3]: 100%
half-life [4]: 1.2 h
AUC [5]: 3400 ng·h/mL
Cmax [6]: 1800 ng/mL

NC(=O)c1cccc2nc([C@@H]3CCC(=O)N3)[nH]c12
pKi [7]: 8.52

CN1CCN(C)C(c2nc3cccc(C(N)=O)c3[nH]2)C1 (centres undefined)
pKi [2]: 7.46
pEC50 [1]: 7.01

NC(=O)c1cccc2[nH]cnc12
pKi [2]: 6.62

CC(C)N1CCCC(c2nc3cccc(C(N)=O)c3[nH]2)C1 (centres undefined)
bioavailability [3]: 100%
half-life [4]: 0.4 h
AUC [5]: 1200 ng·h/mL
Cmax [6]: 800 ng/mL
pKi [2]: 7.66
pEC50 [1]: 7.92

CC(C)N1CCC[C@H]1c1nc2c(C(N)=O)cccc2[nH]1
pKi [2]: 7.70
pEC50 [1]: 7.82

NC(=O)c1cccc2[nH]c(C3CCNCC3)nc12
pKi [2]: 8.30
pEC50 [1]: < 6.00

CC(C)N1CCC[C@@H]1c1nc2cccc(C(N)=O)c2[nH]1
pKi [2]: 7.68
pEC50 [1]: 7.92

CC(=O)N1CCC(c2nc3cccc(C(N)=O)c3[nH]2)CC1
pKi [2]: 7.23

NC(=O)c1cccc2[nH]c(C3CNC3)nc12
pKi [7]: 7.96

CC(C)N1CCC(c2nc3c(C(N)=O)cccc3[nH]2)CC1
pKi [7]: 8.70
pKi [2]: 8.15
pEC50 [1]: 8.40
